{
  "source": "patent US12491170B2",
  "about": "“Stable treprostinil prodrugs” (United Therapeutics Corporation, priority 2020, dated 2025)",
  "data": [
    {"experiment": "Stability in cryopreserved hepatocytes, dog", "settings": "not given", "units": {"Trep Concentration (μM) 0 min": "µM", "Trep Concentration (μM) 15 min": "µM", "Trep Concentration (μM) 30 min": "µM", "Trep Concentration (μM) 60 min": "µM", "Trep Concentration (μM) 120 min": "µM"}, "values": [
      {"smiles": "CCCCCC(CCC1C(O)CC2Cc3c(cccc3OCC(=O)O)CC21)OC(=O)COc1ccc(OC(F)(F)F)cc1", "note": "(stereo not shown) [LXIV]", "Trep Concentration (μM) 0 min": 0.0196, "Trep Concentration (μM) 15 min": 0.466, "Trep Concentration (μM) 30 min": 0.514, "Trep Concentration (μM) 60 min": 0.485, "Trep Concentration (μM) 120 min": 0.451}
    ]},
    {"experiment": "Stability in cryopreserved hepatocytes, dog", "settings": "dog", "units": {"AUC": "µmol·min/L"}, "values": [
      {"smiles": "CCCCCC(CCC1C(O)CC2Cc3c(cccc3OCC(=O)O)CC21)OC(=O)COc1ccc(OC(F)(F)F)cc1", "note": "(stereo not shown) [LXIV]", "AUC": 54.06}
    ]},
    {"experiment": "Stability in liver microsomes, rat", "settings": "not given", "units": {"Trep Concentration 0 min": "µM", "Trep Concentration 10 min": "µM", "Trep Concentration 20 min": "µM", "Trep Concentration 30 min": "µM", "Trep Concentration 60 min": "µM"}, "values": [
      {"smiles": "CCCCCC(CCC1C(O)CC2Cc3c(cccc3OCC(=O)O)CC21)OC(=O)COc1ccc(OC(F)(F)F)cc1", "note": "(stereo not shown) [LXIV]", "Trep Concentration 0 min": 0.803, "Trep Concentration 10 min": 0.882, "Trep Concentration 20 min": 0.91, "Trep Concentration 30 min": 0.902, "Trep Concentration 60 min": 0.753},
      {"smiles": "CCCCCC(CCC1C(O)CC2Cc3c(cccc3OCC(=O)O)CC21)OC(=O)CN", "note": "(stereo not shown) [XXX]", "Trep Concentration 0 min": 0.011, "Trep Concentration 10 min": 0.0524, "Trep Concentration 20 min": 0.0901, "Trep Concentration 30 min": 0.122, "Trep Concentration 60 min": 0.196}
    ]},
    {"experiment": "Stability in cryopreserved hepatocytes, human", "settings": "not given", "units": {"Trep Concentration (μM) 0 min": "µM", "Trep Concentration (μM) 15 min": "µM", "Trep Concentration (μM) 30 min": "µM", "Trep Concentration (μM) 60 min": "µM", "Trep Concentration (μM) 120 min": "µM"}, "values": [
      {"smiles": "CCCCCC(CCC1C(O)CC2Cc3c(cccc3OCC(=O)O)CC21)OC(=O)COc1ccc(OC(F)(F)F)cc1", "note": "(stereo not shown) [LXIV]", "Trep Concentration (μM) 0 min": 0.0116, "Trep Concentration (μM) 15 min": 0.521, "Trep Concentration (μM) 30 min": 0.509, "Trep Concentration (μM) 60 min": 0.458, "Trep Concentration (μM) 120 min": 0.411}
    ]},
    {"experiment": "Stability in cryopreserved hepatocytes, human", "settings": "human", "units": {"AUC": "µmol·min/L"}, "values": [
      {"smiles": "CCCCCC(CCC1C(O)CC2Cc3c(cccc3OCC(=O)O)CC21)OC(=O)COc1ccc(OC(F)(F)F)cc1", "note": "(stereo not shown) [LXIV]", "AUC": 52.29}
    ]},
    {"experiment": "not given", "settings": "rat", "units": {"AUC": "µmol·min/L"}, "values": [
      {"smiles": "CCCCCC(CCC1C(O)CC2Cc3c(cccc3OCC(=O)O)CC21)OC(=O)COc1ccc(OC(F)(F)F)cc1", "note": "(stereo not shown) [LXIV]", "AUC": 51.27},
      {"smiles": "CCCCCC(CCC1C(O)CC2Cc3c(cccc3OCC(=O)O)CC21)OC(=O)CN", "note": "(stereo not shown) [XXX]", "AUC": 6.86}
    ]},
    {"experiment": "Stability in human subcutaneous skin homogenate", "settings": "not given", "units": {"Trep Concentration 0 min": "µM", "Trep Concentration 30 min": "µM", "Trep Concentration 60 min": "µM", "Trep Concentration 120 min": "µM"}, "values": [
      {"smiles": "CCCCCC(CCC1C(O)CC2Cc3c(cccc3OCC(=O)O)CC21)OC(=O)COc1ccc(OC(F)(F)F)cc1", "note": "(stereo not shown) [LXIV]", "Trep Concentration 0 min": 0, "Trep Concentration 30 min": 0.0793, "Trep Concentration 60 min": 0.155, "Trep Concentration 120 min": 0.283},
      {"smiles": "CCCCCC(CCC1C(O)CC2Cc3c(cccc3OCC(=O)O)CC21)OC(=O)CN", "note": "(stereo not shown) [XXX]", "Trep Concentration 0 min": 0, "Trep Concentration 30 min": 0.206, "Trep Concentration 60 min": 0.369, "Trep Concentration 120 min": 0.533}
    ]},
    {"experiment": "Stability in human subcutaneous skin homogenate", "settings": "human", "units": {"AUC": "µmol·min/L"}, "values": [
      {"smiles": "CCCCCC(CCC1C(O)CC2Cc3c(cccc3OCC(=O)O)CC21)OC(=O)COc1ccc(OC(F)(F)F)cc1", "note": "(stereo not shown) [LXIV]", "AUC": 17.84},
      {"smiles": "CCCCCC(CCC1C(O)CC2Cc3c(cccc3OCC(=O)O)CC21)OC(=O)CN", "note": "(stereo not shown) [XXX]", "AUC": 38.78}
    ]},
    {"experiment": "Stability in liver microsomes, human", "settings": "not given", "units": {"Trep Concentration 0 min": "µM", "Trep Concentration 10 min": "µM", "Trep Concentration 20 min": "µM", "Trep Concentration 30 min": "µM", "Trep Concentration 60 min": "µM"}, "values": [
      {"smiles": "CCCCCC(CCC1C(O)CC2Cc3c(cccc3OCC(=O)O)CC21)OC(=O)COc1ccc(OC(F)(F)F)cc1", "note": "(stereo not shown) [LXIV]", "Trep Concentration 0 min": 0.911, "Trep Concentration 10 min": 0.752, "Trep Concentration 20 min": 0.667, "Trep Concentration 30 min": 0.596, "Trep Concentration 60 min": 0.351},
      {"smiles": "CCCCCC(CCC1C(O)CC2Cc3c(cccc3OCC(=O)O)CC21)OC(=O)CN", "note": "(stereo not shown) [XXX]", "Trep Concentration 0 min": 0.036, "Trep Concentration 10 min": 0.132, "Trep Concentration 20 min": 0.227, "Trep Concentration 30 min": 0.31, "Trep Concentration 60 min": 0.429}
    ]},
    {"experiment": "Stability in liver microsomes, human", "settings": "human", "units": {"AUC": "µmol·min/L"}, "values": [
      {"smiles": "CCCCCC(CCC1C(O)CC2Cc3c(cccc3OCC(=O)O)CC21)OC(=O)COc1ccc(OC(F)(F)F)cc1", "note": "(stereo not shown) [LXIV]", "AUC": 35.93},
      {"smiles": "CCCCCC(CCC1C(O)CC2Cc3c(cccc3OCC(=O)O)CC21)OC(=O)CN", "note": "(stereo not shown) [XXX]", "AUC": 16.41}
    ]},
    {"experiment": "Stability in liver microsomes, dog", "settings": "not given", "units": {"Trep Concentration 0 min": "µM", "Trep Concentration 10 min": "µM", "Trep Concentration 20 min": "µM", "Trep Concentration 30 min": "µM", "Trep Concentration 60 min": "µM"}, "values": [
      {"smiles": "CCCCCC(CCC1C(O)CC2Cc3c(cccc3OCC(=O)O)CC21)OC(=O)COc1ccc(OC(F)(F)F)cc1", "note": "(stereo not shown) [LXIV]", "Trep Concentration 0 min": 0.453, "Trep Concentration 10 min": 0.548, "Trep Concentration 20 min": 0.592, "Trep Concentration 30 min": 0.603, "Trep Concentration 60 min": 0.627},
      {"smiles": "CCCCCC(CCC1C(O)CC2Cc3c(cccc3OCC(=O)O)CC21)OC(=O)CN", "note": "(stereo not shown) [XXX]", "Trep Concentration 0 min": 0.0977, "Trep Concentration 10 min": 0.347, "Trep Concentration 20 min": 0.495, "Trep Concentration 30 min": 0.562, "Trep Concentration 60 min": 0.664}
    ]},
    {"experiment": "not given", "settings": "dog", "units": {"AUC": "µmol·min/L"}, "values": [
      {"smiles": "CCCCCC(CCC1C(O)CC2Cc3c(cccc3OCC(=O)O)CC21)OC(=O)COc1ccc(OC(F)(F)F)cc1", "note": "(stereo not shown) [LXIV]", "AUC": 35.13},
      {"smiles": "CCCCCC(CCC1C(O)CC2Cc3c(cccc3OCC(=O)O)CC21)OC(=O)CN", "note": "(stereo not shown) [XXX]", "AUC": 30.11}
    ]},
    {"experiment": "Stability in cryopreserved hepatocytes, rat", "settings": "not given", "units": {"Trep Concentration (μM) 0 min": "µM", "Trep Concentration (μM) 15 min": "µM", "Trep Concentration (μM) 30 min": "µM", "Trep Concentration (μM) 60 min": "µM", "Trep Concentration (μM) 120 min": "µM"}, "values": [
      {"smiles": "CCCCCC(CCC1C(O)CC2Cc3c(cccc3OCC(=O)O)CC21)OC(=O)COc1ccc(OC(F)(F)F)cc1", "note": "(stereo not shown) [LXIV]", "Trep Concentration (μM) 0 min": 0.0456, "Trep Concentration (μM) 15 min": 0.374, "Trep Concentration (μM) 30 min": 0.291, "Trep Concentration (μM) 60 min": 0.234, "Trep Concentration (μM) 120 min": 0.206}
    ]},
    {"experiment": "Stability in cryopreserved hepatocytes, rat", "settings": "rat", "units": {"AUC": "µmol·min/L"}, "values": [
      {"smiles": "CCCCCC(CCC1C(O)CC2Cc3c(cccc3OCC(=O)O)CC21)OC(=O)COc1ccc(OC(F)(F)F)cc1", "note": "(stereo not shown) [LXIV]", "AUC": 29.21}
    ]}
  ]
}
